Experimental data taken from publication PMC9775409, “Identification, Screening, and Comprehensive Evaluation of Novel DPP-IV Inhibitory Peptides from the Tilapia Skin Gelatin Hydrolysate Produced Using Ginger Protease” (Biomolecules, 2022).
Where two headings read alike, the source gives them in different places. Non-standard residues stand in square brackets, D forms with d. Residues, ends and D or L forms follow the SMILES beside them. No end group written: not given here. Hyp = O=C(O)[C@@H]1C[C@@H](O)CN1

Assays:
DPP-IV = tested on: DPP-IV; design: method as in PMID 24650211; settings: in words; cited from earlier work
[1] = in vivo, po
Procedure: (§1) Blood was collected at 0.5 and 1 h, after oral administration, from the abdominal aorta and centrifuged (3000× g, 5 min) to acquire plasma. Next, the proteins were precipitated by adding three volumes of 100% ethanol and removed using centrifugation. A volume of 6 μL of supernatant were injected into the LC-MS/MS system, as previously described [16].

[2] = Oral administration in rats, LC-MS/MS identification of peptides in plasma; settings: for Identification in rat plasma, 0.5 h: 0.5 h after oral administration of GPXGPPGPGP; for Identification in rat plasma, 0.5 h / Identification in rat plasma, 1 h: blood from abdominal aorta, ethanol protein precipitation; for Identification in rat plasma, 1 h: 1 h after oral administration of GPXGPPGPGP; for Identified in plasma at 0.5 h: rat plasma 0.5 h after oral administration of GPXGPPGPGP; for Identified in plasma at 0.5 h / Identified in plasma at 1 h: in words; for Identified in plasma at 1 h: rat plasma 1 h after oral administration of GPXGPPGPGP
Procedure: as §1

Caco-2 cell monolayer = settings: cited from earlier work

| Molecule | Inhibitory effect against DPP-IV (DPP-IV) | Identification in rat plasma, 0.5 h [1] | Identification in rat plasma, 1 h [1] | Identified in plasma at 1 h ([1]; rat) | Identification in rat plasma, 0.5 h [2] | Identification in rat plasma, 1 h [2] | Identified in plasma at 0.5 h [2] | Identified in plasma at 1 h [2] | Passage through the Caco-2 cell monolayer (Caco-2 cell monolayer) |
| --- | --- | --- | --- | --- | --- | --- | --- | --- | --- |
| NCC(=O)N1CCC[C@H]1C(=O)N1C[C@H](O)C[C@H]1C(=O)O [GPX, Gly-Pro-Hyp] (H-Gly-Pro-[Hyp]-OH) | inhibitory effect against DPP-IV | + | − | not at 1 h |  |  |  |  |  |
| O=C(O)[C@@H]1C[C@@H](O)CN1C(=O)[C@@H]1CCCN1 [PX, Pro-Hyp] (H-Pro-[Hyp]-OH) | not inhibitory against DPP-IV |  |  |  | + | − | identified in plasma at 0.5 h | not at 1 h |  |
| GA[Hyp]GL[Hyp]GP |  |  |  |  |  |  |  |  | pass through the Caco-2 cell monolayer by paracellular diffusion |
| O=C(O)CNC(=O)[C@@H]1C[C@@H](O)CN1C(=O)[C@@H]1CCCN1 [PXG, Pro-Hyp-Gly] (H-Pro-[Hyp]-Gly-OH) |  |  |  |  | + | − | identified in plasma at 0.5 h | not at 1 h |  |
